Experimental data published in patent US6737383B1, “Herbicidal oxadiazolidines” (priority 1999, dated 2004).

Experiments:
bedstraw = assay: Test B pre/postemergence bedstraw; type: in vivo, Galium aparine
Method in brief: (§1)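 Response is a visual 0-to-10 score relative to untreated plants, where 0 means no effect and 10 means complete control, taken twelve to sixteen days after application. Treatments went onto soil at planting and onto foliage of 1- to 4-leaf plants, using a surfactant-containing non-phytotoxic solvent.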

blackgrass = assay: Test B pre/postemergence blackgrass; type: in vivo, Alopecurus myosuroides
Method in brief: as §1

surinam grass = assay: Test B pre/postemergence surinam grass; type: in vivo, Brachiaria decumbens
Method in brief: as §1

corn = assay: Test B pre/postemergence corn; type: in vivo, Zea mays
Method in brief: as §1

crabgrass = assay: Test B pre/postemergence crabgrass; type: in vivo, Digitaria sanguinalis
Method in brief: as §1

giant foxtail = assay: Test B pre/postemergence giant foxtail; type: in vivo, Setaria faberii
Method in brief: as §1

morningglory = assay: Test B pre/postemergence morningglory; type: in vivo, Ipomoea hederacea
Method in brief: as §1

rape = assay: Test B pre/postemergence rape; type: in vivo, Brassica napus
Method in brief: as §1

soybean = assay: Test B pre/postemergence soybean; type: in vivo, Glycine max
Method in brief: as §1

velvetleaf = assay: Test B pre/postemergence velvetleaf; type: in vivo, Abutilon theophrasti
Method in brief: as §1

wheat = assay: Test B pre/postemergence wheat; type: in vivo, Triticum aestivum
Method in brief: as §1

wild oat = assay: Test B pre/postemergence wild oat; type: in vivo, Avena fatua
Method in brief: as §1

purple nutsedge = assay: Test B pre/postemergence purple nutsedge; type: in vivo, Cyperus rotundus
Method in brief: as §1

rice = assay: Test B flood test rice; type: in vivo, Oryza sativa
Method in brief: (§2)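 Read-out is a visual response score from 0 (no effect) to 10 (complete control), assigned by comparison with untreated controls. Treatment was applied at the 2-leaf stage, and plants stayed in the greenhouse for twelve to sixteen days before scoring.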

smallflower flatsedge = assay: Test B flood test smallflower flatsedge; type: in vivo, Cyperus difformis
Method in brief: as §2

duck salad = assay: Test B flood test duck salad; type: in vivo, Heteranthera limosa
Method in brief: as §2

[1] = Postemergence, Rate 62 g/ha, scale 0 to 10, 0 is no effect, 10 is complete control
[2] = Postemergence, Rate 250 g/ha, scale 0 to 10, 0 no effect, 10 complete control
[3] = Preemergence, Rate 62 g/ha, scale 0 to 10 (0 no effect, 10 complete control)
[4] = Preemergence, Rate 125 g/ha, scale 0 to 10 (0 no effect, 10 complete control)
[5] = Preemergence, Rate 250 g/ha, scale of 0 to 10 where 0 is no effect and 10 is complete control
[6] = Preemergence, Rate 500 g/ha, scale 0 (no effect) to 10 (complete control)
[7] = Rate 125 g/ha, Postemergence, scale 0 to 10, 0 no effect, 10 complete control
[8] = Rate 500 g/ha, Postemergence, scale 0 to 10, 0 no effect, 10 complete control
[9] = Rate 125 g/ha, Postemergence section (flood test species), scale 0 to 10, 0 no effect, 10 complete control
[10] = Rate 500 g/ha, listed under Postemergence (flood test species), scale 0 to 10, 0 no effect, 10 complete control
[11] = flood test, listed under Postemergence, Rate 250 g/ha, scale 0 to 10, 0 no effect, 10 complete control

## CN(C(=O)n1oc(=O)n(Cc2cccs2)c1=O)c1ccccc1 [Compound 83]
bedstraw; [1]
  Bedstraw plant response rating: 0
bedstraw; [2]
  Bedstraw plant response rating: 0
bedstraw; [3]
  Bedstraw plant response rating: 0
bedstraw; [4]
  Plant response rating, Bedstraw: 0
bedstraw; [5]
  Plant response rating, Bedstraw: 0
bedstraw; [6]
  Bedstraw plant response rating: 0
bedstraw; [7]
  Bedstraw plant response rating: 0
bedstraw; [8]
  Bedstraw plant response rating: 0
blackgrass; [1]
  Blackgrass plant response rating: 0
blackgrass; [2]
  Blackgrass plant response rating: 0
blackgrass; [3]
  Blackgrass plant response rating: 0
blackgrass; [4]
  Plant response rating, Blackgrass: 0
blackgrass; [5]
  Plant response rating, Blackgrass: 0
blackgrass; [6]
  Blackgrass plant response rating: 0
blackgrass; [7]
  Blackgrass plant response rating: 0
blackgrass; [8]
  Blackgrass plant response rating: 0
Surinam grass; [1]
  B. signalgrass plant response rating: 0
Surinam grass; [2]
  B. signalgrass plant response rating: 0
Surinam grass; [3]
  B. signalgrass plant response rating: 0
Surinam grass; [4]
  Plant response rating, B. signalgrass: 0
Surinam grass; [5]
  Plant response rating, B. signalgrass: 0
Surinam grass; [6]
  B. signalgrass plant response rating: 0
Surinam grass; [7]
  B. signalgrass plant response rating: 0
Surinam grass; Rate 500 g/ha, Postemergence, scale of 0 to 10 where 0 is no effect and 10 is complete control
  B. signalgrass plant response rating: 0
corn; [1]
  Corn plant response rating: 0
corn; [2]
  Corn plant response rating: 0
corn; [3]
  Corn plant response rating: 0
corn; [4]
  Plant response rating, Corn: 0
corn; [5]
  Plant response rating, Corn: 0
corn; [6]
  Corn plant response rating: 0
corn; [7]
  Corn plant response rating: 0
corn; [8]
  Corn plant response rating: 0
crabgrass; [1]
  Crabgrass plant response rating: 0
crabgrass; [2]
  Crabgrass plant response rating: 0
crabgrass; [3]
  Crabgrass plant response rating: 0
crabgrass; [4]
  Plant response rating, Crabgrass: 0
crabgrass; [5]
  Plant response rating, Crabgrass: 0
crabgrass; [6]
  Crabgrass plant response rating: 0
crabgrass; [7]
  Crabgrass plant response rating: 0
crabgrass; [8]
  Crabgrass plant response rating: 0
Giant foxtail; [1]
  Giant foxtail plant response rating: 0
Giant foxtail; [2]
  Giant foxtail plant response rating: 0
Giant foxtail; [3]
  Giant foxtail plant response rating: 0
Giant foxtail; [4]
  Plant response rating, Giant foxtail: 0
Giant foxtail; [5]
  Plant response rating, Giant foxtail: 0
Giant foxtail; [6]
  Giant foxtail plant response rating: 0
Giant foxtail; [7]
  Giant foxtail plant response rating: 0
Giant foxtail; [8]
  Giant foxtail plant response rating: 0
morningglory; [1]
  Morningglory plant response rating: 0
morningglory; [2]
  Morningglory plant response rating: 0
morningglory; [3]
  Morningglory plant response rating: 0
morningglory; [4]
  Plant response rating, Morningglory: 0
morningglory; [5]
  Plant response rating, Morningglory: 0
morningglory; [6]
  Morningglory plant response rating: 0
morningglory; [7]
  Morningglory plant response rating: 0
morningglory; [8]
  Morningglory plant response rating: 0
rape; [1]
  Rape plant response rating: 0
rape; [2]
  Rape plant response rating: 0
rape; [3]
  Rape plant response rating: 0
rape; [4]
  Plant response rating, Rape: 0
rape; [5]
  Plant response rating, Rape: 0
rape; [6]
  Rape plant response rating: 0
rape; [7]
  Rape plant response rating: 0
rape; [8]
  Rape plant response rating: 0
soybean; [1]
  Soybean plant response rating: 0
soybean; [2]
  Soybean plant response rating: 0
soybean; [3]
  Soybean plant response rating: 0
soybean; [4]
  Plant response rating, Soybean: 0
soybean; [5]
  Plant response rating, Soybean: 0
soybean; [6]
  Soybean plant response rating: 0
soybean; [7]
  Soybean plant response rating: 0
soybean; [8]
  Soybean plant response rating: 0
velvetleaf; [1]
  Velvetleaf plant response rating: 0
velvetleaf; [2]
  Velvetleaf plant response rating: 2
velvetleaf; [3]
  Velvetleaf plant response rating: 0
velvetleaf; [4]
  Plant response rating, Velvetleaf: 0
velvetleaf; [5]
  Plant response rating, Velvetleaf: 0
velvetleaf; [6]
  Velvetleaf plant response rating: 0
velvetleaf; [7]
  Velvetleaf plant response rating: 2
velvetleaf; [8]
  Velvetleaf plant response rating: 4
wheat; [1]
  Wheat plant response rating: 0
wheat; [2]
  Wheat plant response rating: 0
wheat; [3]
  Wheat plant response rating: 0
wheat; [4]
  Plant response rating, Wheat: 0
wheat; [5]
  Plant response rating, Wheat: 0
wheat; [6]
  Wheat plant response rating: 0
wheat; [7]
  Wheat plant response rating: 0
wheat; [8]
  Wheat plant response rating: 0
Wild oat; [1]
  Wild oats plant response rating: 0
Wild oat; [2]
  Wild oats plant response rating: 0
Wild oat; [3]
  Wild oats plant response rating: 0
Wild oat; [4]
  Plant response rating, Wild oats: 0
Wild oat; [5]
  Plant response rating, Wild oats: 0
Wild oat; [6]
  Wild oats plant response rating: 0
Wild oat; [7]
  Wild oats plant response rating: 0
Wild oat; [8]
  Wild oats plant response rating: 0
Purple nutsedge; [1]
  Nutsedge plant response rating: 0
Purple nutsedge; [2]
  Nutsedge plant response rating: 0
Purple nutsedge; [3]
  Nutsedge plant response rating: 0
Purple nutsedge; [4]
  Plant response rating, Nutsedge: 0
Purple nutsedge; [5]
  Plant response rating, Nutsedge: 0
Purple nutsedge; [6]
  Nutsedge plant response rating: 0
Purple nutsedge; [7]
  Nutsedge plant response rating: 0
Purple nutsedge; [8]
  Nutsedge plant response rating: 0
rice; [1]
  Rice plant response rating: 0
rice; [9]
  Rice plant response rating: 0
rice; [10]
  Rice plant response rating: 0
rice; [11]
  Rice plant response rating: 0
Smallflower flatsedge; [1]
  S. Flatsedge plant response rating: 0
Smallflower flatsedge; [9]
  S. Flatsedge plant response rating: 0
Smallflower flatsedge; [10]
  S. Flatsedge plant response rating: 0
Smallflower flatsedge; [11]
  S. Flatsedge plant response rating: 0
Duck salad; [1]
  Ducksalad plant response rating: 0
Duck salad; [9]
  Ducksalad plant response rating: 0
Duck salad; [10]
  Ducksalad plant response rating: 0
Duck salad; [11]
  Ducksalad plant response rating: 0
